This assay addresses Recombinant human cathepsin S (CatS) (Homo sapiens, UniProt P25774). Description: Recombinant human cathepsin S (CatS) inhibition assay, fluorogenic substrate Z-Valine-Valine-Arginine-AMC.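 Further: Baculovirus-expressed CatS in pH 5.0 sodium acetate buffer with DTT and NaCl, fluorescence read each minute over 20 min, inhibition derived from rate slope.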

By pIC50 is commonly meant −log10 of the IC50, conventionally taken in molar units.

Each structure is given as a SMILES string. pIC50: −log10 of the molar value. Like-named read-outs stand apart in the source and are kept apart here.

Recombinant human cathepsin S (CatS), sequence (P25774 115-331): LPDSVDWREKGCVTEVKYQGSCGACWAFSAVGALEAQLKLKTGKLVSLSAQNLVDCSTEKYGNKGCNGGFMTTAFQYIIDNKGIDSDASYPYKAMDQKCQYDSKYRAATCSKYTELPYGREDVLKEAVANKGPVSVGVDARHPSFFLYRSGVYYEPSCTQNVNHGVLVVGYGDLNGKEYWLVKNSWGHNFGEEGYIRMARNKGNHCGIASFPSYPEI

On to `NC(=O)C(=O)N1CCc2c(c(-c3ccc(Cl)c(C#Cc4ccc(CNCc5ccc(Cl)cc5)cc4)c3)nn2C[C@@H](O)CN2CCOCC2)C1` [Example 253, (S)-2-[3-(4-Chloro-3-{4-[(4-chloro-benzylamino)-methyl]-phenylethynyl}-phenyl)-1-(2-hydroxy-3-morpholin-4-yl-propyl)-1,4,6,7-tetrahydro-pyrazolo[4,3-c]pyridin-5-yl]-2-oxo-acetamide], for which the pIC50 is 7.22.

On to `CS(=O)(=O)N1CCc2c(c(-c3ccc(Cl)c(C#Cc4ccc(CNCc5ccc(Cl)cc5)c(F)c4)c3)nn2CCCN2CCOCC2)C1` [Example 436, 1-[4-({2-Chloro-5-[5-(methylsulfonyl)-1-(3-morpholin-4-ylpropyl)-4,5,6,7-tetrahydro-1H-pyrazolo[4,3-c]pyridin-3-yl]phenyl}ethynyl)-2-fluorophenyl]-N-[(4-chlorophenyl)methyl]methanamine], for which the pIC50 is 6.55.

For the compound `CCOC(=O)C1CCN(CCCn2nc(-c3ccc(Cl)c(C#Cc4ccc(CNCc5ccc(Cl)cc5)cc4)c3)c3c2CCN(S(C)(=O)=O)C3)CC1` [Example 334, Ethyl 1-{3-[3-(4-chloro-3-{[4-({[(4-chlorophenyl)methyl]amino}methyl)phenyl]ethynyl}phenyl)-5-(methylsulfonyl)-4,5,6,7-tetrahydro-1H-pyrazolo[4,3-c]pyridin-1-yl]propyl}piperidine-4-carboxylate], the pIC50 is 7.52.

Regarding `CS(=O)(=O)N1CCc2c(c(-c3ccc(Cl)c(/C=C/c4ccccc4)c3)nn2CCCN2CCOCC2)C1` [Example 68, 3-(4-Chloro-3-E-styryl-phenyl)-5-methanesulfonyl-1-(3-morpholin-4-yl-propyl)-4,5,6,7-tetrahydro-1H-pyrazolo[4,3-c]pyridine], the pIC50 was 5.55.

As to `C[C@H]1COCCN1CCCn1nc(-c2ccc(Cl)c(C#Cc3ccc4c(c3)CCN(C3CC3)C4)c2)c2c1CCN(S(C)(=O)=O)C2` [Example 512, 6-({2-Chloro-5-[1-{3-[(3S)-3-methylmorpholin-4-yl]propyl}-5-(methylsulfonyl)-4,5,6,7-tetrahydro-1H-pyrazolo[4,3-c]pyridin-3-yl]phenyl}ethynyl)-2-cyclopropyl-1,2,3,4-tetrahydroisoquinoline], under “CatS IC50”, the pIC50 is 6.66.

In the case of `Clc1ccc(CNCc2ccc(C#Cc3cc(-c4nn(CCCN5CCOCC5)c5c4CNCC5)ccc3Cl)cc2)cc1` [Example 166, 1-[4-({2-Chloro-5-[1-(3-morpholin-4-ylpropyl)-4,5,6,7-tetrahydro-1H-pyrazolo[4,3-c]pyridin-3-yl]phenyl}ethynyl)phenyl]-N-[(4-chlorophenyl)methyl]methanamine], the pIC50 is 5.60.

For `CS(=O)(=O)N1CCc2c(c(-c3ccc(Cl)c(C#Cc4ccc(CNCc5ccc(Cl)cc5)cc4)c3)nn2CC(O)CN2CCC(C(N)=O)CC2)C1` (centres unmarked) [Example 363, 1-{3-[3-(4-Chloro-3-{[4-({[(4-chlorophenyl)methyl]amino}methyl)phenyl]ethynyl}phenyl)-5-(methylsulfonyl)-4,5,6,7-tetrahydro-1H-pyrazolo[4,3-c]pyridin-1-yl]-2-hydroxypropyl}piperidine-4-carboxamide], the pIC50 was 7.05.

With `CC(C)(C)OC(=O)N1C[C@H]2C[C@@H]1CN2CCCn1nc(-c2ccc(Cl)c(C#Cc3ccc(CNCc4ccc(Cl)cc4)cc3)c2)c2c1CCN(S(C)(=O)=O)C2` [Example 492, 1,1-Dimethylethyl (1R,4R)-5-{3-[3-(4-chloro-3-{[4-({[(4-chlorophenyl)methyl]amino}methyl)phenyl]ethynyl}phenyl)-5-(methylsulfonyl)-4,5,6,7-tetrahydro-1H-pyrazolo[4,3-c]pyridin-1-yl]propyl}-2,5-diazabicyclo[2.2.1]heptane-2-carboxylate], the pIC50 is 6.66.

`NC(=O)C(=O)N1CCc2c(c(-c3ccc(Cl)c(C#Cc4ccc(Cl)c(C(=O)N5CCNCC5)c4)c3)nn2CCCN2CCSCC2)C1` [Example 568, 2-[3-(4-Chloro-3-{[4-chloro-3-(piperazin-1-ylcarbonyl)phenyl]ethynyl}phenyl)-1-(3-thiomorpholin-4-ylpropyl)-1,4,6,7-tetrahydro-5H-pyrazolo[4,3-c]pyridin-5-yl]-2-oxoacetamide]: the pIC50 (CatS IC50) is 6.85.

`CS(=O)(=O)N1CCc2c(c(-c3ccc(Cl)c(CCCc4ccccc4)c3)nn2CCCN2CCOCC2)C1` [Example 63, 3-[4-Chloro-3-(3-phenyl-propyl)-phenyl]-5-methanesulfonyl-1-(3-morpholin-4-yl-propyl)-4,5,6,7-tetrahydro-1H-pyrazolo[4,3-c]pyridine]: the negative logarithm of the IC50 (pIC50) is 5.85.

With `CS(=O)(=O)N1CCc2c(c(-c3ccc(Cl)c(C#Cc4ccc5c(c4)CNCC5)c3)nn2CCCN2CCN(c3ccccc3)CC2)C1` [Example 225, 7-[(2-Chloro-5-{5-(methylsulfonyl)-1-[3-(4-phenylpiperazin-1-yl)propyl]-4,5,6,7-tetrahydro-1H-pyrazolo[4,3-c]pyridin-3-yl}phenyl)ethynyl]-1,2,3,4-tetrahydroisoquinoline], the pIC50 is 8.00.

As to `NC(=O)C(=O)N1CCc2c(c(-c3ccc(Cl)c(C#Cc4ccc(CNCc5ccc(Cl)cc5)cc4)c3)nn2CCCN2CCC(C(N)=O)CC2)C1` [Example 450, 1-(3-{5-[Amino(oxo)acetyl]-3-(4-chloro-3-{[4-({[(4-chlorophenyl)methyl]amino}methyl)phenyl]ethynyl}phenyl)-4,5,6,7-tetrahydro-1H-pyrazolo[4,3-c]pyridin-1-yl}propyl)piperidine-4-carboxamide], the pIC50 (CatS IC50) was 7.15.

For the compound `CS(=O)(=O)N1CCc2c(c(-c3ccc(Cl)c(C#Cc4ccc(Cl)c(CNC5CC5)c4)c3)nn2CCCN2CCCCC2)C1` [Example 603, N-[2-Chloro-5-({2-chloro-5-[5-(methylsulfonyl)-1-(3-piperidin-1-ylpropyl)-4,5,6,7-tetrahydro-1H-pyrazolo[4,3-c]pyridin-3-yl]phenyl}ethynyl)benzyl]cyclopropanamine], the pIC50 (CatS IC50) was 7.30.

Consider `CS(=O)(=O)N1CCc2c(c(-c3ccc(Cl)c(C#Cc4ccc(CN[C@@H](CO)c5ccccc5)cc4)c3)nn2CCCN2CCOCC2)C1` [Example 209, (2R)-2-({[4-({2-Chloro-5-[5-(methylsulfonyl)-1-(3-morpholin-4-ylpropyl)-4,5,6,7-tetrahydro-1H-pyrazolo[4,3-c]pyridin-3-yl]phenyl}ethynyl)phenyl]methyl}amino)-2-phenylethanol], for which, where the note is “CatS IC50”, the pIC50 is 7.00.

For `CS(=O)(=O)N1CCc2c(c(-c3ccc(Cl)c(C#CC4CCCCC4)c3)nn2CCCN2CCOCC2)C1` [Example 48, 3-(4-Chloro-3-cyclohexylethynyl-phenyl)-5-methanesulfonyl-1-(3-morpholin-4-yl-propyl)-4,5,6,7-tetrahydro-1H-pyrazolo[4,3-c]pyridine], under “CatS IC50”, the pIC50 is 5.17.

`CS(=O)(=O)N1CCc2c(c(-c3ccc(Cl)c(C#Cc4ccc5c(c4)CN[C@H](C(=O)N4CCCC4)C5)c3)nn2CCCN2CCOCC2)C1` [Example 466, (3S)-7-({2-Chloro-5-[5-(methylsulfonyl)-1-(3-morpholin-4-ylpropyl)-4,5,6,7-tetrahydro-1H-pyrazolo[4,3-c]pyridin-3-yl]phenyl}ethynyl)-3-(pyrrolidin-1-ylcarbonyl)-1,2,3,4-tetrahydroisoquinoline]: the pIC50 is 7.30.

For `Cc1ccc(CNCc2ccc(C#Cc3cc(-c4nn(CCCN5CCOCC5)c5c4CN(S(C)(=O)=O)CC5)ccc3Cl)cc2)cc1` [Example 75, (4-{2-Chloro-5-[5-methanesulfonyl-1-(3-morpholin-4-yl-propyl)-4,5,6,7-tetrahydro-1H-pyrazolo[4,3-c]pyridin-3-yl]-phenylethynyl]-benzyl)-(4-methyl-benzyl)-amine], the pIC50 was 6.46.

Take `CS(=O)(=O)N1CCc2c(c(-c3ccc(Cl)c(CCCN4CCCCCC4)c3)nn2CCCN2CCC(N3CCCC3=O)CC2)C1` [Example 107, 1-[1-(3-{3-[3-(3-Azepan-1-yl-propyl)-4-chloro-phenyl]-5-methanesulfonyl-4,5,6,7-tetrahydro-pyrazolo[4,3-c]pyridin-1-yl}-propyl)-piperidin-4-yl]-pyrrolidin-2-one]: the pIC50 was 6.30.

With `C=CCNCc1ccc(C#Cc2cc(-c3nn(CCCN4CCOCC4)c4c3CN(S(C)(=O)=O)CC4)ccc2Cl)cc1` [Example 349, N-{[4-({2-Chloro-5-[5-(methylsulfonyl)-1-(3-morpholin-4-ylpropyl)-4,5,6,7-tetrahydro-1H-pyrazolo[4,3-c]pyridin-3-yl]phenyl}ethynyl)phenyl]methyl}prop-2-en-1-amine], the pIC50 (CatS IC50) was 6.26.

For the compound `CC(C)(C)OC(=O)NC1CCN(CC(O)Cn2nc(-c3ccc(C(F)(F)F)c(C#Cc4ccc(Cl)cc4)c3)c3c2CCN(S(C)(=O)=O)C3)CC1` (centres unmarked) [Example 121, [1-(3-{3-[3-(4-Chloro-phenylethynyl)-4-trifluoromethyl-phenyl]-5-methanesulfonyl-4,5,6,7-tetrahydro-pyrazolo[4,3-c]pyridin-1-yl}-2-hydroxy-propyl)-piperidin-4-yl]-carbamic acid tert-butyl ester], the pIC50 is 6.82.

Regarding `Cc1ccsc1CNCc1ccc(C#Cc2cc(-c3nn(CCCN4CCOC[C@@H]4C)c4c3CN(S(C)(=O)=O)CC4)ccc2Cl)cc1` [Example 431, 1-[4-({2-Chloro-5-[1-{3-[(3S)-3-methylmorpholin-4-yl]propyl}-5-(methylsulfonyl)-4,5,6,7-tetrahydro-1H-pyrazolo[4,3-c]pyridin-3-yl]phenyl}ethynyl)phenyl]-N-[(3-methyl-2-thienyl)methyl]methanamine], the pIC50 is 6.77.

On to `NC(=O)N1CCc2c(c(-c3ccc(Cl)c(C#Cc4ccc(CNCc5ccc(Cl)cc5)cc4)c3)nn2CCCN2CCN(C3CCC3)CC2)C1` [Example 460, 3-(4-Chloro-3-{[4-({[(4-chlorophenyl)methyl]amino}methyl)phenyl]ethynyl}phenyl)-1-[3-(4-cyclobutylpiperazin-1-yl)propyl]-1,4,6,7-tetrahydro-5H-pyrazolo[4,3-c]pyridine-5-carboxamide], for which the negative logarithm of the IC50 (pIC50) (CatS IC50) is 6.77.

As for `CS(=O)(=O)N1CCc2c(c(-c3ccc(Cl)c(CCCCCO)c3)nn2CCCN2CCOCC2)C1` [Example 301, 5-{2-Chloro-5-[5-(methylsulfonyl)-1-(3-morpholin-4-ylpropyl)-4,5,6,7-tetrahydro-1H-pyrazolo[4,3-c]pyridin-3-yl]phenyl}pentan-1-ol], the pIC50 was 5.15.

The values are drawn from patent US20080200454A1, “CARBON-LINKED TETRAHYDRO-PYRAZOLO-PYRIDINE MODULATORS OF CATHEPSIN S” (priority 2007, published 2008).
